Where “and” joins values, the source holds several entries; their conditions need not be identical. Identical values can stand only once. Entries after “also recorded” stand apart in the source; their conditions may differ. Like-named read-outs stand apart in the source and are kept apart here.
Columns and labels:
[1] = tested on: B16F10 melanoma cells; assay: Cell viability assay: EZ-cytox assay; type: cell-based, murine; settings: up to 20 µM, 24 h
[2] = tested on: cellular tyrosinase in B16F10 melanoma cells; type: cell-based, murine; settings: for cellular tyrosinase activity: 5, 10, 20 μM, α-MSH 1 μM and IBMX 200 µM, 48 h
[3] = tested on: B16F10 melanoma cells; assay: Melanin content assay in α-MSH and IBMX co-stimulated B16F10 cells; type: cell-based, murine; settings: for melanin contents: 5, 10, 20 μM, α-MSH and IBMX, 48 h
[4] = target: mushroom tyrosinase (Agaricus bisporus, UniProt C7FF04); assay: biochemical; type: biochemical; settings: for Tyrosinase inhibition (%): 25 μM, L-tyrosine as substrate, NI: no inhibition, means ± SEMs, 25 µM; for inhibitory potency relative to kojic acid: from IC50 values
[5] = tested on: mushroom tyrosinase; assay: Kinetic studies of tyrosinase inhibition; type: biochemical; settings: for mode of tyrosinase inhibition: Lineweaver-Burk plots, L-tyrosine as substrate
[6] = after 5 days at 20 °C; cited from earlier work

Chain of mushroom tyrosinase (Agaricus bisporus, UniProt C7FF04) (C7FF04 1-392): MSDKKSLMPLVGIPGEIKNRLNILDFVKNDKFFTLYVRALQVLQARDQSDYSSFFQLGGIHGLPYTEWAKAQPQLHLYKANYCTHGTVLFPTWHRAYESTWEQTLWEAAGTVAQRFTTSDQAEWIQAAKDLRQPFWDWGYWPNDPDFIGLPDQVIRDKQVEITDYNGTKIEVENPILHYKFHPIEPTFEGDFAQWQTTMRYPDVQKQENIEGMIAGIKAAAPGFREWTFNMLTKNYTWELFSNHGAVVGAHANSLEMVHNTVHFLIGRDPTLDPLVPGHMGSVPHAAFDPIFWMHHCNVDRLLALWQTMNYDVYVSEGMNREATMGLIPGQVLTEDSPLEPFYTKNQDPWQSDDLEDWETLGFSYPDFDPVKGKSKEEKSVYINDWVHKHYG

| SMILES | cytotoxic effect (cell viability) [1] | cellular tyrosinase activity [2] | cellular tyrosinase inhibition compared with kojic acid at 20 μM ([2]; compound at 10 μM) | melanin contents [3] | IC50 [4] [µM] | Tyrosinase inhibition (%) [4] [%] | inhibitory potency relative to kojic acid [4] | mode of tyrosinase inhibition [5] | Ki ([5]; inhibitor conc. 5.0 μM) [µM] | Vmax ([5]; inhibitor conc. 5.0 μM) [mM/min] | Ki ([5]; inhibitor conc. 10.0 μM) [µM] | Vmax ([5]; inhibitor conc. 10.0 μM) [mM/min] | Vmax ([5]; regardless of concentration) [mM/min] | also measured |
| --- | --- | --- | --- | --- | --- | --- | --- | --- | --- | --- | --- | --- | --- | --- |
| O=C1/C(=C/c2ccccc2O)OC(=S)N1c1ccccc1 [Compound 1j, (Z)-5-(2-Hydroxybenzylidene)-3-phenyl-2-thioxooxazolidin-4-one] | did not have a significant cytotoxic effect | significantly and concentration-dependently decreased cellular tyrosinase activity | more potent than kojic acid | significantly and potently decreased melanin contents | 11.2 ± 0.54 | 71.12 ± 0.71 | 2 fold and 2.1 fold | competitively inhibited; also recorded: competitive inhibitors | 5.85 | 0.027 | 4.51 | 0.027 | 0.027 | cellular tyrosinase inhibition compared with kojic acid at 20 μM ([2]; compound at 5 μM): inhibited cellular tyrosinase more than kojic acid; inhibition of melanin production compared with kojic acid at 20 µM ([3]; compound at 5 μM): inhibited melanin production more than kojic acid; Ki ([5]; inhibitor conc. 20.0 μM): 3.22 µM; Vmax ([5]; inhibitor conc. 20.0 μM): 0.027 mM/min |
| O=C1/C(=C/c2ccc(O)c(Br)c2)OC(=S)N1c1ccccc1 [Compound 1n, (Z)-5-(3-Bromo-4-hydroxybenzylidene)-3-phenyl-2-thioxooxazolidin-4-one] | – | – | – | – | – | 24.96 ± 4.72 | – | – | – | – | – | – | – | – |
| OC[C@H]1O[C@@H](Oc2ccc(O)cc2)[C@H](O)[C@@H](O)[C@@H]1O [Arbutin] | – | – | – | – | – | – | – | – | – | – | – | – | – | decomposition [6]: 10% |
| O=C1/C(=C/c2ccc(O)cc2O)OC(=S)N1c1ccccc1 [Compound 1c, (Z)-5-(2,4-Dihydroxybenzylidene)-3-phenyl-2-thioxooxazolidin-4-one] | did not have a significant cytotoxic effect | significantly and concentration-dependently decreased cellular tyrosinase activity | more potent than kojic acid; also recorded: inhibited cellular tyrosinase more than kojic acid | significantly and potently decreased melanin contents | 4.7 ± 0.4 | 78.05 ± 4.03 | 5 fold and 4.9 fold | competitively inhibited; also recorded: competitive inhibitors | 2.51 | 0.04 | 2.19 | 0.04 | 0.04 | inhibition of melanin production compared with kojic acid at 20 µM ([3]; compound at 10 μM): inhibited melanin production more than kojic acid; Ki ([5]; inhibitor conc. 2.5 μM): 3.02 µM; Vmax ([5]; inhibitor conc. 2.5 μM): 0.04 mM/min |
| O=C1/C(=C/c2ccc(O)c(O)c2)OC(=S)N1c1ccccc1 [Compound 1b, (Z)-5-(3,4-Dihydroxybenzylidene)-3-phenyl-2-thioxooxazolidin-4-one] | – | – | – | – | 53.38 ± 0.39 | – | – | – | – | – | – | – | – | – |
